Test results taken from patent EP2311818B1, “Combination of a 5-phenylthiazole compound as PI3 kinase inhibitor with an antiinflammatory, bronchodilatory or antihistamine drug” (Novartis AG, priority 2003, dated 2003).
pIC50: −log10 of the molar value.

Biological target: T1, recombinant GST-p110y (Homo sapiens, UniProt P48736)
T1 construct: Residues 38-1102 of human P13Ky are subcloned into the BamH1 and EcoR1 sites; made in house; host or cells: Sf9 (Spodoptera frugiperda) insect cells, baculovirus
T1 sequence (P48736 38-1102): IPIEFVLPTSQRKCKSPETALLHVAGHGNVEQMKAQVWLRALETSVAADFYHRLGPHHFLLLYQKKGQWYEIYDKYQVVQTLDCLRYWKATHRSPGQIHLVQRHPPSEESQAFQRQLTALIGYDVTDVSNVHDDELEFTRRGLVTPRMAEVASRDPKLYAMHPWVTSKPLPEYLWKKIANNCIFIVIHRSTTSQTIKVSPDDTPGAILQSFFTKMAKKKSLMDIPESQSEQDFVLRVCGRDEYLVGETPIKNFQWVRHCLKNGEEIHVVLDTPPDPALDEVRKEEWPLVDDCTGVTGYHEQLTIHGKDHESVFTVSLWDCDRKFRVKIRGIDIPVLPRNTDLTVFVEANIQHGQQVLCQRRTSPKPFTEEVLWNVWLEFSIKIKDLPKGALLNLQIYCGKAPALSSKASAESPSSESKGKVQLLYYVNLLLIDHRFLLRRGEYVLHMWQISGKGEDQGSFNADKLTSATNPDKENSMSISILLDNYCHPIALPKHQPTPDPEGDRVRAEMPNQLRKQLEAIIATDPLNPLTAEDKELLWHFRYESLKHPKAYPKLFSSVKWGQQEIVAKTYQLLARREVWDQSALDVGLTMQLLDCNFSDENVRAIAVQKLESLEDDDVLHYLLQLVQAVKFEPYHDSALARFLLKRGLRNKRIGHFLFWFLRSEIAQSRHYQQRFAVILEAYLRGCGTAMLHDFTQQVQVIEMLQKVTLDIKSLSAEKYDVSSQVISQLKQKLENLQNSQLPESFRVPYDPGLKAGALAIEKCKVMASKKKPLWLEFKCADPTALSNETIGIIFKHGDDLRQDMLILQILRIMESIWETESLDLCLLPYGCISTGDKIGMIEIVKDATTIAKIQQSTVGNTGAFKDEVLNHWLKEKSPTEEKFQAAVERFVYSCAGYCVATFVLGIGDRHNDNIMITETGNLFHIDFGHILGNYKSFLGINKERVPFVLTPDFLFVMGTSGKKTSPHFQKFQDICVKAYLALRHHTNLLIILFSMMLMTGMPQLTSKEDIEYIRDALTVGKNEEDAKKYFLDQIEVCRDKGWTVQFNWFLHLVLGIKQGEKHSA
Assay: in vitro PI3Kγ kinase assay (Scintillation Proximity Assay, transfer of terminal phosphate of ATP to phosphatidylinositol)
Format: biochemical
Details: 12.5 µM ATP, 15 µg/ml phosphatidylinositol, room temperature, 60 minutes
Description: To express the recombinant protein, Sf9 (Spodoptera frugiperda 9) insect cells are routinely maintained at densities between 3 X 10^5 and 3 X 10^6 cells/ml in serum containing TNMFH medium (Sigma). Sf9 cells, at a density of 2 X 10^6 are infected with human GST-P13KγΔ34 baculovirus at a multiplicity of infection (m.o.i.) of 1 for 72 hours. The infected cells are harvested by centrifugation at 1400 g for 4 minutes at 4° C and the cell pellets are frozen at -80° C. […] The unbound flow through sample is collected by centrifugation at 1000g for 5 minutes at 4° C using a DENLEY™ centrifuge. The 1 ml GST resin containing bound material is transferred to a 15 ml FALCON™ centrifuge tube for subsequent washing and elution steps. Firstly a series of 3 cycles of washings (mixing by gentle inversion) is performed with 15 ml ice cold wash Buffer A (50 mM Tris-HCl pH 7.5, 1 % Triton X-100, 2 mM DTT) interspersed with centrifugation at 1000g for 5 minutes at 4° C. A final single wash step is performed with 15 ml ice cold wash Buffer B (50mM Tris-HCl pH 7.5, 2 mM DTT) and then centrifuged at 1000g for 5 minutes at 4° C. The washed GST resin is finally eluted with 4 cycles of 1 ml ice cold elution buffer (50 mM Tris-HCl pH 7.5, 10 mM reduced glutathione, 2 mM DTT, 150 mM NaCl, 1 mM NaF, 50% ethylene glycol and protease inhibitors) interspersed with centrifugation at 1000g for 5 minutes at 4° C.. Samples are aliquoted and stored at -20° C.
An in vitro kinase assay was established that measures the transfer of the terminal phosphate of adenosine triphosphate to phosphatidylinositol. The kinase reaction is performed in a white 96 well microtitre plate as a Scintillation Proximity Assay. […] The reaction is started by the addition of 20 µl of enzyme mix (40 mM Tris, 200 mM NaCl, 2 mM EGTA containing recombinant GST-p110y).

Row | Compound | pIC50
1 | CC(=O)Nc1nc(C)c(-c2cc(Br)c(S(N)(=O)=O)c(Br)c2)s1 [Example 8, N-[5-(3.5-Dibromo-4-sulfamoyl-phenyl)-4-methyl-thiazol-2-yl]-acetamide] | 8.05
2 | CC(=O)Nc1nc(C)c(-c2ccc(Cl)c(S(C)(=O)=O)c2)s1 [Example 48, N-[5-(4-Chloro-3-methanesulfonyl-phenyl)-4-methyl-thiazol-2-yl]-acetamide] | 7.74
3 | CC(=O)Nc1nc(C)c(-c2ccc(S(C)(=O)=O)c(-n3ccnc3)c2)s1 [Example 80, N-[5-(3-Imidazol-1-yl-4-methanesulfonyl-phenyl)-4-methyl-thiazol-2-yl]-acetamide] | 7.89
4 | Cc1nc(NC(N)=O)sc1-c1ccc(Cl)c(S(C)(=O)=O)c1 [Example 138, [5-(4-chloro-3-methanesulfonyl-phenyl)-4-methyl-thiazol-2-yl]-urea] | 8.30
5 | CCOC(=O)CCNC(=O)Nc1nc(C)c(-c2ccc(S(C)(=O)=O)c(F)c2)s1 [Example 165, 3-{3-[5-(3-Fluoro-4-methanesulfonyl-phenyl)-4-met4l-thiazol-2-yl]-ureido}-propionic acid ethyl ester] | 7.72
6 | CCc1cnc(CCNC(=O)Nc2nc(C)c(-c3ccc(S(C)(=O)=O)c(F)c3)s2)o1 [Example 178] | 7.40
